Results as given in patent US11208404B2 (PERENNA PHARMACEUTICALS, INC., priority 2017, dated 2021).
Where “and” joins values, the source holds several entries; their conditions need not be identical. Equal values may be shown once. Read-outs that look alike come from different tables or passages of the source.

Biological target: ALCAT1 (Homo sapiens (Human), UniProt Q6UWP7)
Assay: In vitro acyltransferase assay for ALCAT1 inhibitors
Type: biochemical
Conditions: for % inh @ 1 μM / inhibition at 1 µM: 1 μM compound; for IC50: ALCAT1 enzyme activity
Excerpt: The human ALCAT1 protein were expressed in Spodoptera frugiperda (Sf9) insect cells by using a Bac-to-Bac baculovirus expression system (Invitrogen) according to the manufacturer's instruction. High-titer recombinant baculovirus expressing the human ALCAT1 protein was generated by several rounds of viral amplification. The Sf9 cells were typically infected with recombinant baculovirus for 3 days, harvested in ice-cold phosphate-buffered saline (PBS), and homogenized in 20 mm NaCl by going through French press. The total cell lysates were centrifuged at 10,000×g for 1 hours at 4° C. to eliminate the nucleus fraction, followed by ultracentrifugation at 100,000×g to pallet the membrane fraction. The membrane fraction was resuspended in enzymatic buffer that contain 10% glycerol, quantified for protein concentration, aliquoted, and stored at −80° C.
ALCAT1 enzymatic activity was determined by measuring the conversion of monolysocardiolipin (MLCL) to cardiolipin or lysophosphatidylglycerol (LPG) to phosphatidylglycerol (PG) in an enzymatic reaction mixture that contained 50 mm Tris/HCl, pH 7.0, 100 μm lysophospholipids, 25 μm [^14C]acyl-CoA (50 mCi/mmol, American Radiolabeled Chemicals, Inc), and membrane fraction (0.5-2.5 μg) in a total volume of 200 μl. The reaction was incubated at room temperature for 30 min. The lipids were extracted will chloroform, dried, and separated by thin layer chromatography (TLC) with chloroform:hexane:methanol:acetic acid (50:30:10:5, v/v) or chloroform:methanol:water (65:25:4, v/v). After separation, TLC plates were exposed to a Phosphorlmager screen to visualize the radiolabeled products with a Molecular Dynamics Typhoon Scanner (Sunnyvale, Calif.). In some experiments, NBD-CoA was used at 100 μM to replace the [^14C]acyl-CoA in the enzymatic reaction. All quantitative data were expressed as mean±S.E. Statistical analyses for differences between two groups were carried out using a Student's t test.
Compound inhibitors for ALCAT1 enzyme were analyzed by an in vitro enzymatic assay as detailed above. Compound inhibitors were added to the enzymatic mixture at 1-20 μM concentrations before the start of the acyltransferase reaction.
Where multiple measurements were taken this is indicated by a “/” between multiple values.
IC50 values for each compound were analyzed in triplicates, and calculated by GraphPad software.

[1] = 10 μM compound, in vitro enzymatic assay
[2] = triplicates, GraphPad, read-out: IC50

ALCAT1, sequence (Q6UWP7 whole entry): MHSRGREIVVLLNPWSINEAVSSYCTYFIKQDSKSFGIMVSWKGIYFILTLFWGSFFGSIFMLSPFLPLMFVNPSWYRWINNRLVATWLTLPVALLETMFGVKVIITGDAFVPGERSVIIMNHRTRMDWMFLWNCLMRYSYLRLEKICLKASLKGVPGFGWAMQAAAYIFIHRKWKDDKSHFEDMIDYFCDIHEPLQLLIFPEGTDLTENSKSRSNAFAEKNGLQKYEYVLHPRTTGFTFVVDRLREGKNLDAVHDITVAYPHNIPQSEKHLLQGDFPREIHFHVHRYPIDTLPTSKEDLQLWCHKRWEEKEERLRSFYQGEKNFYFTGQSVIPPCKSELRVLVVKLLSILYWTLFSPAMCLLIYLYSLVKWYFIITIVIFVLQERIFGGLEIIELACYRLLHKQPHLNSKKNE

Row | Structure (SMILES) | % inh @ 1 μM (in vitro enzymatic assay) | inhibition at 1 µM (in vitro enzymatic assay) [%] | inhibition at 10 µM [1] [%] | IC50 [2] [nM] | other results
1 | O=C(Nc1cccc(-c2nnc(-c3ccco3)o2)c1)c1ccccc1OCC(F)(F)F [Compound 223] | 90% | 94 | – | 150 | –
2 | CCCOc1ccc(C)cc1C(=O)Nc1cccc(-c2nnc(-c3ccco3)o2)c1 [Compound 207] | 87% | 86 | – | 190 | –
3 | COc1cccc(C(=O)Nc2cccc(-c3nnc(-c4ccco4)o3)c2)c1 [Compound 58] | – | – | 45 | 2400 | –
4 | O=C(Nc1cccc(-c2nnc(-c3ccco3)o2)c1)c1ccccc1OCC(F)F [Compound 275] | 99% | 98 | – | 200 | –
5 | O=C(Nc1cccc(-c2nnc(-c3ccco3)o2)c1)c1c(F)ccc([N+](=O)[O-])c1F [Compound 344] | – | 33 | – | – | –
6 | O=C(Nc1cccc(-c2nnc(-c3ccco3)o2)c1)c1cc(OC(F)(F)F)ccc1F [Compound 211, 2-Fluoro-N-(3-(5-(furan-2-yl)-1,3,4-oxadiazol-2-yl)phenyl)-5-(trifluoromethoxy)benzamide] | 97% | 95 | – | 96 | –
7 | N#Cc1ccc(C(=O)Nc2cccc(-c3nnc(-c4ccco4)o3)c2)cc1 [Compound 36] | – | – | 1 | – | –
8 | O=C(Nc1cccc(-c2nnc(-c3ccco3)o2)c1)c1ccc([N+](=O)[O-])cc1 [Compound 85] | – | 10 | 3 | – | –
9 | COc1ccc([N+](=O)[O-])cc1C(=O)Nc1cccc(-c2nnc(-c3ccco3)o2)c1 [Compound 341] | – | 73 | – | 500 | –
10 | O=C(Nc1cccc(-c2nnc(-c3ccco3)o2)c1)c1cccc(OC(F)(F)F)c1 [Compound 233] | 65% | 68 | – | – | –
11 | CCCOc1ccc(Br)cc1C(=O)Nc1cccc(-c2nnc(-c3ccco3)o2)c1 [Compound 119, 5-Bromo-N-(3-(5-(furan-2-yl)-1,3,4-oxadiazol-2-yl)phenyl)-2-propoxybenzamide] | – | 92 | 95 | 90 | –
12 | Cc1cccc(C(=O)Nc2cccc(-c3nnc(-c4ccco4)o3)c2)c1 [Compound 57] | – | – | 75 | 2800 | % inh @ 10 μM [1]: 89% and 94%
13 | O=C(Nc1cccc(-c2nnc(-c3ccco3)o2)c1)c1ccc2c(c1)OCO2 [Compound 177] | – | 3 | 1 | – | –
14 | O=C(Nc1cccc(-c2nnc(-c3ccco3)o2)c1)c1cccc2c1OCO2 [Compound 178] | – | 27 | – | – | –
15 | COc1ccc(C(=O)O)cc1C(=O)Nc1cccc(-c2nnc(-c3ccco3)o2)c1 [Compound 114] | – | 36 | 48 | – | –
16 | CC(C)COc1ccccc1C(=O)Nc1cccc(-c2nnc(-c3ccco3)o2)c1 [Compound 217] | 68% | 69 | – | – | –
17 | COC(=O)c1ccc(OC)c(C(=O)Nc2cccc(-c3nnc(-c4ccco4)o3)c2)c1 [Compound 115] | – | 51 | 53 | – | –
18 | O=C(Nc1cccc(-c2nnc(-c3ccco3)o2)c1)c1cc(F)ccc1OCC(F)(F)F [Compound 228, 5-Fluoro-N-(3-(5-(furan-2-yl)-1,3,4-oxadiazol-2-yl)phenyl)-2-(2,2,2-trifluoroethoxy)benzamide] | 99% | 100 | – | 72 | –
19 | O=C(Nc1cccc(-c2nnc(-c3ccco3)o2)c1)c1cccc(O)c1 [Compound 62] | – | 2 | 11 | – | –
20 | O=C(Nc1cccc(-c2nnc(-c3ccco3)o2)c1)c1cccc(-c2ccccc2)c1 [Compound 238] | 23/23% | 23 | – | – | –
21 | COc1ccc(Cl)cc1C(=O)Nc1cc(-c2nnc(-c3cnco3)o2)ccc1F [Compound 364] | – | – | – | 120 | –
22 | O=C(Nc1cccc(-c2cnc(-c3ccco3)o2)c1)c1ccccc1F [Compound 40] | – | – | – | 1700 | –
23 | O=C(Nc1cccc(-c2nnc(-c3ccco3)s2)c1)c1ccccc1F [Compound 135] | 62% | 56 | – | – | –
24 | COc1ccc(C(F)(F)F)cc1C(=O)Nc1cccc(-c2nnc(-c3ccco3)o2)c1 [Compound 278] | 100% | 97 | – | 120 | –

More lines, main results first:

Row | % inh @ 1 μM (in vitro enzymatic assay) | inhibition at 1 µM (in vitro enzymatic assay) [%] | inhibition at 10 µM [1] [%] | IC50 [2] [nM] | Structure (SMILES) | other results
25 | 76% | 67 | – | – | COc1ccc(F)c(C(=O)Nc2cccc(-c3nnc(-c4ccco4)o3)c2)c1 [Compound 214] | –
26 | – | – | 56 | – | O=C(Nc1cc(-c2nnc(-c3ccco3)o2)ccc1Br)c1ccccc1F [Compound 25] | –
27 | 8% | 7 | – | – | O=C(Nc1cccc(-c2nnc(-c3ncco3)o2)c1)c1ccccc1F [Compound 236] | –
28 | – | – | – | 100 | O=C(Nc1cc(-c2nnc(-c3ccco3)o2)ccc1F)c1ccccc1OC(F)(F)F [Compound 301, N-(2-Fluoro-5-(5-(furan-2-yl)-1,3,4-oxadiazol-2-yl)phenyl)-2-(trifluoromethoxy)benzamide] | –
29 | – | 81 | 100 | 130 | COc1ccccc1C(=O)Nc1cccc(-c2nnc(-c3ccco3)o2)c1 [Compound 55] | –
30 | – | 13 | 17 | – | O=C(Nc1cccc(-c2nnc(-c3ccco3)o2)c1)c1c(F)cccc1F [Compound 143] | –
31 | – | 94 | – | – | O=C(Nc1cc(-c2nnc(-c3ccco3)o2)ccc1F)c1cc(Cl)ccc1Cl [Compound 347] | –
32 | – | 96 | 100 | 110 | CCOc1ccccc1C(=O)Nc1cccc(-c2nnc(-c3ccco3)o2)c1 [Compound 174] | –
33 | – | 47 | 87 | – | O=C(Nc1cccc(-c2nnc(-c3ccco3)o2)c1)c1ccccc1C(F)F [Compound 9] | –
34 | – | 30 | – | – | Cc1c(C(=O)Nc2cc(-c3nnc(-c4ccco4)o3)ccc2F)cccc1[N+](=O)[O-] [Compound 332] | –
35 | – | 59 | – | 750 | O=C(Nc1ccnc(-c2nnc(-c3ccco3)o2)c1)c1ccccc1F [Compound 52] | –
36 | – | 93 | 100 | 640 | O=C(Nc1cccc(-c2nnc(-c3ccco3)o2)c1)c1cc(Br)ccc1F [Compound 188] | –
37 | – | 33 | – | – | COc1c(C)cccc1C(=O)Nc1cccc(-c2nnc(-c3ccco3)o2)c1 [Compound 182] | –
38 | – | – | 2 | – | Cc1ccc(-c2nnc(-c3cccc(NC(=O)c4ccccc4F)c3)o2)o1 [Compound 19] | –
39 | – | 100 | 100 | 29 | COc1ccccc1C(=O)Nc1cc(-c2nnc(-c3ccco3)o2)ccc1F [Compound 128, N-(2-Fluoro-5-(5-(furan-2-yl)-1,3,4-oxadiazol-2-yl)phenyl)-2-methoxybenzamide] | IC50 (read-out: IC50 values (upper bounds)): < 100 nM
40 | – | – | 98 | 47 | O=C(Nc1cc(-c2nnc(-c3ccco3)o2)ccc1F)c1ccccc1F [Compound 27] | –
41 | – | – | – | 1900 | O=C(Nc1cccc(-c2nnc(-c3ccco3)o2)c1)c1cccc(Br)c1 [Compound 203] | –
42 | – | 9 | 38 | – | O=C(Nc1cccc(-c2nnc(-c3ccco3)o2)c1)c1c(F)cccc1Cl [Compound 145] | –
43 | 39% | 26 | – | – | Cc1cc(NC(=O)c2ccccc2F)cc(-c2nnc(-c3ccco3)o2)c1 [Compound 132] | –
44 | – | 68 | 97 | 340 | O=C(Nc1cccc(-c2nnc(-c3ccco3)o2)c1)c1cccc(F)c1F [Compound 196] | –
45 | 36% | 20 | – | – | Cc1ccc(NC(=O)c2ccccc2F)cc1-c1nnc(-c2ccco2)o1 [Compound 81] | –
46 | – | 13 | – | – | O=C(Nc1cccc(-c2nnc(-c3ccoc3)o2)c1)c1ccccc1F [Compound 20, 2-fluoro-N-(3-(5-(furan-3-yl)-1,3,4-oxadiazol-2-yl)phenyl)benzamide] | –
47 | 50% | 30 | – | – | CS(=O)(=O)c1ccccc1C(=O)Nc1cccc(-c2nnc(-c3ccco3)o2)c1 [Compound 248] | –
48 | 83% | 75 | – | 290 | O=C(Nc1cccc(-c2nnc(-c3ccco3)o2)c1Cl)c1ccccc1F [Compound 297] | –
49 | – | 63 | – | – | O=C(Nc1cc(-c2nnc(-c3ccco3)s2)ccc1F)c1ccccc1F [Compound 325] | –
50 | – | 92 | 97 | 67 | CCOc1ccc(F)cc1C(=O)Nc1cccc(-c2nnc(-c3ccco3)o2)c1 [Compound 125, 2-Ethoxy-5-fluoro-N-(3-(5-(furan-2-yl)-1,3,4-oxadiazol-2-yl)phenyl)benzamide] | –
